Assay results published in ChEMBL document CHEMBL5137009, “On the Utility of Chemical Strategies to Improve Peptide Gut Stability” (J Med Chem, 2022).

What was measured:
[1] = Stability of the compound in simulated intestinal fluid at pH 6.8 assessed as half life measured up to 24 hrs by RP-HPLC-UV analysis; format: ADME
[2] = Stability of the compound in simulated gastric fluid at pH 1.2 assessed as half life measured up to 24 hrs by RP-HPLC-UV analysis; format: ADME

Compound	half-life [1] [h]	half-life [2] [h]
CC[C@H](C)[C@@H]1NC(=O)[C@H](CCC(=O)O)NC(=O)[C@@H]2CCCN2C(=O)[C@H](Cc2cnc[nH]2)NC(=O)[C@H](CC(=O)O)NC(=O)[C@H](Cc2ccc(O)cc2)NC(=O)[C@H](CC(N)=O)NC(=O)[C@@H]2CSSC[C@H](NC(=O)CN)C(=O)N[C@@H](CSSC[C@@H](C(N)=O)NC1=O)C(=O)N[C@@H](CO)C(=O)N[C@@H](CC(=O)O)C(=O)N1CCC[C@H]1C(=O)N[C@@H](CCCNC(=N)N)C(=O)N2	2.4	> 24
CC(C)C[C@@H]1NC(=O)[C@H](CCC(=O)O)NC(=O)[C@@H](NC(=O)[C@H](CCC(=O)O)NC(=O)[C@H](CC(=O)O)NC(=O)[C@H](N)CC(N)=O)CSSC[C@@H]2NC(=O)[C@H](C)NC(=O)[C@H](C(C)C)NC(=O)[C@H](CC(N)=O)NC(=O)[C@H](C(C)C)NC(=O)[C@H](CSSC[C@@H](C(=O)N[C@H](CC(C)C)C(=O)O)NC(=O)CNC(=O)[C@H]([C@@H](C)O)NC2=O)NC1=O	> 24	> 24
CC[C@H](C)[C@@H]1NC(=O)[C@H](CCC(=O)O)NC(=O)[C@@H]2CCCN2C(=O)[C@H](Cc2c[nH]cn2)NC(=O)[C@H](CC(=O)O)NC(=O)[C@H](Cc2ccc(O)cc2)NC(=O)[C@H](CC(N)=O)NC(=O)[C@@H]2CSSC[C@@H]3NC(=O)CNC(=O)CNC(=O)CNC(=O)[C@H](C)NC(=O)[C@H](C)NC(=O)CNC(=O)CNC(=O)[C@@H](CSSC[C@H](NC3=O)C(=O)N[C@@H](CO)C(=O)N[C@@H](CC(=O)O)C(=O)N3CCC[C@H]3C(=O)N[C@@H](CCCNC(=N)N)C(=O)N2)NC1=O	1.5	> 24
